Entries after “also recorded” stand apart in the source; their conditions may differ. Each block holds one molecule with its values, some of them ahead of it.
Key:
in vivo = assay: in vivo; set-up: species or system male rats (Long Evans); conditions: rat, iv
Method: Since the compounds of the formula (l) are also potent thrombin inhibitors (see U.S. Pat. No. 5,523,308), an ex vivo thrombin assay was conducted to determine the duration of action of the compounds of Formula I. For this i.v. assay male rats (Long Evans, 350-500 g) were implanted with a teflon cannulae via the femoral artery while under anesthesia (pentobarbital i.p., 35 mg/kg). After surgery, the animals were individually housed in standard cages, fed with rat chow (Hanlan, #8604) and continuously infused with physiological saline to maintain arterial patency, (0.5 mL/h, intra arterial) using a spring-shielded swiveling tether connected to an infusion system. The animals were allowed to recover for at least 24 h after the surgical procedure.
A sample of blood was drawn from the animals 15 min before dosing with the inhibitor (0.25 mL blood is drawn into a syringe containing 0.025 mL of Sigma sodium citrate). The test compound was dispersed in water and delivered to the animal (0.25 mL) via the femoral vein. The inhibitor was given at a concentration (mg/mL) which produced 80% inhibition of VO in a plasma sample at 5 min after infusion. Blood was drawn from the arterial line (blood:sodium citrate, 0.25/0.025 mL ) at regular intervals after dosing (5, 10, 15, 30, 60 and 120 min) and placed in a centrifuge tube. A plasma sample was obtained by centrifuging the blood at 10,000 rpm for 5 min. This sample is analyzed for thrombin inhibition using the chromogenic assay, described below.
The rate of increase in absorbance at 405 nm of synthetic peptides (50 μM Spectozyme® TH (H-D-HHT-Ala-Arg-pNA-2AcOH), American Diagnostica) is measured in the presence of plasma with a microplate reader (Molecular Devices) at 37° C. using an aqueous buffer (10 mM Tris, 10 mM Hepes, 150 mM NaCl, 0.1% PEG; pH 7.4). The buffer was added to the plasma samples (1:1) dilution prior to delivery to the microplate (1:5 and 1:50 for final plasma dilutions of 1:10 and 1:100 respectively) followed by the enzyme (1 nM human α thrombin). Datum was collected over a 30 min period and the initial rate of substrate hydrolysis (V0 (mOD/min)) was calculated with an analysis program (Softmax, Molecular Devices).
The time to half plasma elimination (t 1/2) was calculated from the slope of VO vs. time, using the following equation: […]. These datum are presented in Table L. In Table L, the compound # corresponds to the compound number described in U.S. Pat. No. 5,523,308.

[1] = tested on: MelanoDerm human epidermal equivalents; assay: Pigmentation of MelanoDerm epidermal equivalents (DOPA, H&E or F&M staining, image analysis); format: cell-based; conditions: for pigmentation/melanogenesis in epidermal equivalents: MelanoDerm, three days of treatment, stained on fourth day, FIG. 1B, FIG. 2, FIG. 3
Human Skin Chymase = biological target: T1, Human Skin Chymase (Homo sapiens, UniProt P23946); assay: Chymase 10 μM Screen Method; format: biochemical; conditions: 10 μM, room temperature, 5.0 nM enzyme, 3 hours; read-out: Chymase % Inhibition (10 μM)
T1 construct: purchased Cortex Biochem CP1129; host or cells: human skin
T1 sequence (P23946 22-247): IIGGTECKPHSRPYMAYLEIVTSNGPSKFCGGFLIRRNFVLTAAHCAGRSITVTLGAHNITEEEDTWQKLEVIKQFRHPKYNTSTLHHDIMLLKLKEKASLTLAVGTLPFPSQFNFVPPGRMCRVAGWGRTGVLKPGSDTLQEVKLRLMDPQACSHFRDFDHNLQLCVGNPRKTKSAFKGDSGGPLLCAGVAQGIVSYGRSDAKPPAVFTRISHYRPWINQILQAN
Method: The enzyme reaction is started by the addition of enzyme ([E]: 1.0 nM human Lung Tryptase; Cortex Biochem CP3033). Data is collected over a period of 30 min. and the initial rate of substrate hydrolysis (Vo (mOD/min)) is calculated. Inhibition is calculated by comparing to wells containing no inhibitor (vehicle) and IC50 s are determined using a four parameter fit logistics model. […] Data is collected over a period of 30 min. and the initial rate of substrate hydrolysis (Vo (mOD/min)) is calculated. Inhibition is calculated by comparing to wells containing no inhibitor (vehicle) and IC50 s are determined using a four parameter fit logistics model. […] The enzyme reaction is started by the addition of enzyme ([E]: 5.0 nM Human Skin Chymase; Cortex Biochem CP1129), and 3 hours following that addition data is collected. After subtracting background (no enzyme addition), inhibition is calculated by comparing to wells containing no inhibitor (vehicle).

human Lung Tryptase = assay: Tryptase IC50 Method; format: biochemical; conditions: 37° C., 1.0 nM enzyme, 500 μM substrate
Method: The enzyme reaction is started by the addition of enzyme ([E]: 1.0 nM human Lung Tryptase; Cortex Biochem CP3033). Data is collected over a period of 30 min. and the initial rate of substrate hydrolysis (Vo (mOD/min)) is calculated. Inhibition is calculated by comparing to wells containing no inhibitor (vehicle) and IC50 s are determined using a four parameter fit logistics model. […] The enzyme reaction is started by the addition of enzyme ([E]: 10.0 nM Human Skin Chymase; Cortex Biochem CPl 129). Data is collected over a period of 30 min. and the initial rate of substrate hydrolysis (Vo (mOD/min)) is calculated. Inhibition is calculated by comparing to wells containing no inhibitor (vehicle) and IC50 s are determined using a four parameter fit logistics model. Chymase 10 μM Screen Method: The optical density at 405 nm due to hydrolysis of synthetic chromogenic peptide substrates ([S]: 500 μM Suc-Ala-Ala-Pro-Phe-pNA; Bachem L-1400) is measured in the presence and absence of inhibitor compounds of formula (I) with a microplate reader at room temperature. The enzyme reaction is started by the addition of enzyme ([E]: 5.0 nM Human Skin Chymase; Cortex Biochem CP1129), and 3 hours following that addition data is collected. After subtracting background (no enzyme addition), inhibition is calculated by comparing to wells containing no inhibitor (vehicle).

Yucatan swine skin = Yucatan swine skin pigmentation, topical, visual/chromameter/histology
Description: Each compound was applied to two sites on the pig twice daily, five days per week for eight weeks. After eight weeks of treatment, chromameter measurements were taken.
Two sites per concentration were placed on opposite sides of the swine dorsum. Chromameter measurements were taken before treatment started and every two weeks thereafter. Pictures were taken periodically and at the end of the experiment.

[2] = tested on: MelanoDerm human epidermal equivalents; conditions: MelanoDerm equivalents are known to respond; cited from earlier work
S91 cells = assay: Pigmentation of choleratoxin-induced S91 cells; format: cell-based, mouse
Description: Indeed, the level of pigmentation of human primary melanocytes or choleratoxin-induced S91 cells, which is reduced by hydroquinone and benzaldehyde, was not affected by Compound I.

[3] = tested on: human primary melanocytes; assay: Pigmentation of primary melanocyte cultures; format: cell-based; conditions: for level of pigmentation, human primary melanocytes: melanocytes alone
[4] = tested on: Co-cultures (no K-M contact); assay: Pigmentation of keratinocyte-melanocyte co-cultures without K-M contact; format: cell-based, human; conditions: Table D; three days, DOPA stained on fourth day
Description: Since PAR-2 is not expressed in melanocytes, we tested the possible requirement of keratinocyte-melanocyte interactions for the depigmenting effect of Compound I. Primary melanocyte cultures were compared to identical cultures plated under epidermal equivalents (EpiDerm, lacking melanocytes) to create a co-culture with no contact between keratinocytes and melanocytes. These were also compared to MelanoDerm equivalents, where melanocytes are present in the basal layer of the equivalent. Cultures were treated for three days with Compound I, with the PAR-2 agonist SLIGRL, and with the TR agonist TFLLRNPNDK, as set forth in Table D, and DOPA stained on the fourth day. In Table D, keratinocytes are indicated by "K", melanocytes are indicated by "M" and lack of keratinocyte-melanocyte contact is indicated as "no K-M contact". […] In MelanoDerm equivalents, compound I reduced and SLIGRL induced pigmentation, while TFLLRNPNDK had no effect.

[5] = Table D, three days, DOPA stained on fourth day

- half-life (in vivo): 16 min
Molecule: CN[C@H](Cc1ccccc1)C(=O)N1CCC[C@H]1C(=O)N[C@@H](CCCNC(=N)N)C(=O)c1nccs1 [Compound 4]

- inhibition at 10 µM (Human Skin Chymase): 4%
- IC50 (human Lung Tryptase): 33.7 nM
- half-life (in vivo): 8 min
Molecule: CN[C@H](Cc1ccccc1)C(=O)N1CCC[C@H]1C(=O)N[C@@H](CCCNC(=N)N)C(=O)c1nc2c(ccc3ccccc32)s1 [Compound 52]

- half-life (in vivo): 6 min
Molecule: N=C(N)NCCC[C@H](NC(=O)[C@@H]1CCCN1C(=O)CC(c1ccccc1)c1ccccc1)C(=O)c1nc2ccccc2s1 [Compound 3]

- inhibition at 10 µM (Human Skin Chymase): 4%
- IC50 (human Lung Tryptase): 15.1 nM
- half-life (in vivo): 11 min
Molecule: CN[C@H](Cc1ccccc1)C(=O)N1CCC[C@H]1C(=O)N[C@@H](CCCNC(=N)N)C(=O)c1nc2ccccc2[nH]1 [Compound 35]

- inhibition at 10 µM (Human Skin Chymase): 37%
- IC50 (human Lung Tryptase): > 10000 nM
Molecule: CCCC[C@H](NC(=O)[C@@H]1CCCN1C(=O)[C@@H](Cc1ccccc1)NC)C(=O)c1nc2ccccc2s1 [Compound 39]

- inhibition at 10 µM (Human Skin Chymase): 5%
Molecule: CN[C@H](Cc1ccccc1)C(=O)N1CCC[C@H]1C(=O)N[C@@H](CCCOC)C(=O)c1nc2ccccc2s1 [Compound 53]

- half-life (in vivo): 18 min
Molecule: CN[C@H](Cc1ccccc1)C(=O)N1CCC[C@H]1C(=O)N[C@@H](CCCN=C(N)N)C(=O)c1nc2ccccc2o1 [Compound 5]

- inhibition at 10 µM (Human Skin Chymase): 3%
- IC50 (human Lung Tryptase): 11.1 nM
- half-life (in vivo): 8 min
Molecule: CN[C@H](Cc1ccccc1)C(=O)N1CCC[C@H]1C(=O)N[C@@H](CCCNC(=N)N)C(=O)c1nc2ccc(F)cc2s1 [Compound 17]

- inhibition at 10 µM (Human Skin Chymase): 2%
- IC50 (human Lung Tryptase): 1.7 nM
- half-life (in vivo): 43 min
Molecule: CN[C@H](Cc1ccccc1)C(=O)N1CCC[C@H]1C(=O)N[C@@H](CCCNC(=N)N)C(=O)c1nc2ccc(C(=O)OC)cc2s1 [Compound 12]

The remaining lines, values behind:

Molecule: Hirudin
- pigmentation/melanogenesis in epidermal equivalents [1]: no effect on pigmentation

Molecule: CN[C@H](Cc1c(F)c(F)c(F)c(F)c1F)C(=O)N1CCC[C@H]1C(=O)N[C@@H](CCCNC(=N)N)C(=O)c1nc2ccccc2s1 [Compound 30]
- inhibition at 10 µM (Human Skin Chymase): 6%
- IC50 (human Lung Tryptase): 2.7 nM
- half-life (in vivo): 6 min

Molecule: SFLLRN [reference compound]
- effect on skin pigmentation (Yucatan swine skin; 10 μM, twice daily, five days per week, eight weeks): no significant effects
- pigmentation/melanogenesis in epidermal equivalents [1]: trend of lightening or reducing pigmentation

Molecule: Oc1ccc(O)cc1 [hydroquinone]
- pigmentation of epidermal equivalents (known response to whitening agents) [2]: reducing pigmentation
- level of pigmentation, choleratoxin-induced S91 cells (S91 cells): reduced
- level of pigmentation, human primary melanocytes [3]: reduced

Molecule: TFLLRNPNDK [reference compound]
- pigmentation/melanogenesis in epidermal equivalents [1]: no effect on pigmentation
- effect on pigmentation, MelanoDerm (K-M contact) [1, 5]: no effect
- effect on pigmentation, Co-cultures (no K-M contact) [4]: no effect
- effect on pigmentation, Melanocytes (no K) [3, 5]: no effect

Molecule: O=Cc1ccccc1 [benzaldehyde]
- pigmentation of epidermal equivalents (known response to whitening agents) [2]: reducing pigmentation
- level of pigmentation, choleratoxin-induced S91 cells (S91 cells): reduced
- level of pigmentation, human primary melanocytes [3]: reduced

Molecule: N=C(N)NCCC[C@H](NC(=O)C1CCCC1)C(=O)c1nc2ccccc2s1 [Compound 31]
- inhibition at 10 µM (Human Skin Chymase): 0%
- IC50 (human Lung Tryptase): 828 nM

B1: STI: soybean trypsin inhibitor, available from Sigma (protein, UniProt P01070 25-205, looked up)
Trypsin inhibitor A: DFVLDNEGNPLENGGTYYILSDITAFGGIRAAPTGNERCPLTVVQSRNELDKGIGTIISSPYRIRFIAEGHPLSLKFDSFAVIMLCVGIPTEWSVVEDLPEGPAVKIGENKDAMDGWFRLERVSDDEFNNYKLVFCPQQAEDDKCGDIGISIDHDDGTRRLVVSKNKPLVVQFQKLDKESL
- visual lightness of treated sites versus surrounding skin (Yucatan swine skin; twice a day, five days a week, at seven weeks): visually lighter than the surrounding skin
- pigmentation/melanogenesis in epidermal equivalents [1]: very effective in inhibiting melanogenesis; also recorded: reduces pigmentation

B2: Trypsin: Activates TR and PAR-2 (protein, UniProt P00760 24-246, looked up)
Serine protease 1: IVGGYTCGANTVPYQVSLNSGYHFCGGSLINSQWVVSAAHCYKSGIQVRLGEDNINVVEGNEQFISASKSIVHPSYNSNTLNNDIMLIKLKSAASLNSRVASISLPTSCASAGTQCLISGWGNTKSSGTSYPDVLKCLKAPILSDSSCKSAYPGQITSNMFCAGYLEGGKDSCQGDSGGPVVCSGKLQGIVSWGSGCAQKNKPGVYTKVCNYVSWIKQTIASN
- pigmentation, dose-response ([1]; increasing concentrations, SLIGRL 0, 10 and 50 μM, Compound I 0.1 μM to 1 μM, FIG. 4A): has the same effect

Reference: patent US6323219A, “Methods for treating immunomediated inflammatory disorders” (Ortho-McNeil Pharmaceutical, Inc., priority 1999, dated 2001)
